Measured values taken from ChEMBL document CHEMBL3400149, “Discovery of novel spiro 1,3,4-thiadiazolines as potent, orally bioavailable and brain penetrant KSP inhibitors” (Bioorg Med Chem, 2015).
Active and inactive are the calls of the source. The calls are words filed in the database; no cut-off is given here.

What was measured:
[1] = Retention time of the compound; type: physicochemical
[2] = biological target: T1, Kinesin-like protein KIF11 (Homo sapiens, UniProt P52732); test: Inhibition of KSP in human HCT116 cells assessed as phos-histone H3 level by immunofluorescent assay; type: cell-based, HCT-116
T1 sequence (P52732 whole entry): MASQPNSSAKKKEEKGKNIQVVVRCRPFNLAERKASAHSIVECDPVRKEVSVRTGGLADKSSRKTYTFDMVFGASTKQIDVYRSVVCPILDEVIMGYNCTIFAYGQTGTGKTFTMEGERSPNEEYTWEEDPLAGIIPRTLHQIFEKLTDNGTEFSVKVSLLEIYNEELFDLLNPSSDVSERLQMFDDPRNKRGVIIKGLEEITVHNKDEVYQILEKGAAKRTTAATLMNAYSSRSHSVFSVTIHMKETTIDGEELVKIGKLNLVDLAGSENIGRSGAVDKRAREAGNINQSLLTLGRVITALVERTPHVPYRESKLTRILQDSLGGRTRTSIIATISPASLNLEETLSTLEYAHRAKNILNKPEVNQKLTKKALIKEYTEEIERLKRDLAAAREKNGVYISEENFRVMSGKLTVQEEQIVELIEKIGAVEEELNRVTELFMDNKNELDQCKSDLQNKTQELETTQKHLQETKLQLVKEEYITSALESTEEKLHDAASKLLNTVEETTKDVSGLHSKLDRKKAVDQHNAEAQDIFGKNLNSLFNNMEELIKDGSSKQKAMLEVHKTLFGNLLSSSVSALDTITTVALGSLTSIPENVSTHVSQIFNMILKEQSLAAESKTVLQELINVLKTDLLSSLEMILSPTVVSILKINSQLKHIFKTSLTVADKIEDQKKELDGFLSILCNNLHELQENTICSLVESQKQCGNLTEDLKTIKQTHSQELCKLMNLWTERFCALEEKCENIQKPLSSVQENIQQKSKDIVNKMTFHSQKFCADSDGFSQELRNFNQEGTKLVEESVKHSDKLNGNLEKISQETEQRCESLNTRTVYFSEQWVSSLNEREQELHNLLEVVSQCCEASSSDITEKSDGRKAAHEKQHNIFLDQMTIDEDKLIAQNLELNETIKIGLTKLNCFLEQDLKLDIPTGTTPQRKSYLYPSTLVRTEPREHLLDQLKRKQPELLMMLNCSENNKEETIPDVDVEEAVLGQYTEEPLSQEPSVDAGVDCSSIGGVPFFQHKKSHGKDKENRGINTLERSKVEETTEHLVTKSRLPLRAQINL

HCT-116 [3] = test: Induction of mitotic arrest in human HCT116 cells assessed as increase in 4N DNA content at 1.6 nM after 16 hrs by propidium iodine staining based FACS analysis; type: functional
HCT-116 [4] = test: Induction of mitotic arrest in human HCT116 cells assessed as increase mitosis at 1.6 nM after 24 hrs by propidium iodine staining based FACS analysis; type: functional, cell-based
[5] = Oral bioavailability in CD1 mouse at 5 mg/kg; type: ADME, organism-based; details: in vivo
[6] = Cmax in CD1 mouse at 5 mg/kg, po; type: ADME, organism-based; design: dose 5 mg/kg, route oral; details: in vivo
[7] = Volume of distribution at steady state in Sprague-Dawley rat at 1 mg/kg, iv; type: ADME, organism-based; design: dose 1 mg/kg, route intravenous; details: in vivo, read-out: Vdss
[8] = Oral bioavailability in Sprague-Dawley rat at 50 mg/kg; type: ADME, organism-based; details: in vivo
[9] = Half life in Sprague-Dawley rat at 1 mg/kg, iv; type: ADME, organism-based; design: dose 1 mg/kg, route intravenous; details: in vivo
[10] = AUC in CD1 mouse at 5 mg/kg, iv; type: ADME, organism-based; design: dose 5 mg/kg, route intravenous; details: plasma
[11] = AUC in beagle dog at 1 mg/kg, iv; type: ADME, organism-based, Canis lupus familiaris; design: dose 1 mg/kg, route intravenous; details: plasma
[12] = AUC in Sprague-Dawley rat at 50 mg/kg, po; type: ADME, organism-based; design: dose 50 mg/kg, route oral; details: plasma
[13] = Clearance in CD1 mouse at 5 mg/kg, iv; type: ADME, organism-based; design: dose 5 mg/kg, route intravenous; details: in vivo
[14] = AUC in Sprague-Dawley rat at 1 mg/kg, iv; type: ADME, organism-based; design: dose 1 mg/kg, route intravenous; details: plasma
[15] = Half life in CD1 mouse at 5 mg/kg, iv; type: ADME, organism-based; design: dose 5 mg/kg, route intravenous; details: in vivo
HCT-116 [16] = test: Induction of mitotic arrest in human HCT116 cells assessed as increase in […] spindle formation at 6.25 nM after 16 hrs by propidium iodine staining based FACS analysis; type: functional, cell-based
[17] = Clearance in Sprague-Dawley rat at 1 mg/kg, iv; type: ADME, organism-based; design: dose 1 mg/kg, route intravenous; details: in vivo
[18] = Volume of distribution at steady state in beagle dog at 1 mg/kg, iv; type: ADME, organism-based, Canis lupus familiaris; design: dose 1 mg/kg, route intravenous; details: in vivo, read-out: Vdss
[19] = Half life in beagle dog at 1 mg/kg, iv; type: ADME, organism-based, Canis lupus familiaris; design: dose 1 mg/kg, route intravenous; details: in vivo
[20] = Cmax in beagle dog at 5 mg/kg, po; type: ADME, organism-based, Canis lupus familiaris; design: dose 5 mg/kg, route oral; details: in vivo
[21] = Clearance in beagle dog at 1 mg/kg, iv; type: ADME, organism-based, Canis lupus familiaris; design: dose 1 mg/kg, route intravenous; details: in vivo
[22] = Volume of distribution at steady state in CD1 mouse at 5 mg/kg, iv; type: ADME, organism-based; design: dose 5 mg/kg, route intravenous; details: in vivo, read-out: Vdss
[23] = Oral bioavailability in beagle dog at 5 mg/kg; type: ADME, organism-based, Canis lupus familiaris; details: in vivo
[24] = Cmax in Sprague-Dawley rat at 50 mg/kg, po; type: ADME, organism-based; design: dose 50 mg/kg, route oral; details: in vivo
[25] = AUC in CD1 mouse at 5 mg/kg, po; type: ADME, organism-based; design: dose 5 mg/kg, route oral; details: plasma
[26] = AUC in beagle dog at 5 mg/kg, po; type: ADME, organism-based, Canis lupus familiaris; design: dose 5 mg/kg, route oral; details: plasma
[27] = Oral bioavailability in beagle dog at 10 mg/kg; type: ADME, organism-based, Canis lupus familiaris; details: in vivo
[28] = Permeability across apical to basolateral side in human Caco2 cells; type: ADME, cell-based; details: Caco-2, read-out: permeability
[29] = Cmax in beagle dog at 10 mg/kg, po; type: ADME, organism-based, Canis lupus familiaris; design: dose 10 mg/kg, route oral; details: in vivo
[30] = AUC ratio of drug uptake from brain to plasma in mouse; type: ADME, organism-based
[31] = Oral bioavailability in monkey; type: ADME, organism-based, Macaca mulatta; details: rhesus monkey, in vivo
[32] = Cmax in CD1 mouse at 10 mg/kg, po; type: ADME, organism-based; design: dose 10 mg/kg, route oral; details: in vivo
[33] = Antitumor activity against human U373 cells xenografted in mouse assessed as tumor growth inhibition at 7.5 mg/kg, po q3d measured on day 35; type: functional, U-373MG ATCC; details: 840 h
[34] = AUC in Sprague-Dawley rat at 10 mg/kg, po; type: ADME, organism-based; design: dose 10 mg/kg, route oral; details: plasma
[35] = Oral bioavailability in Sprague-Dawley rat at 10 mg/kg; type: ADME, organism-based; details: in vivo
[36] = Oral bioavailability in CD1 mouse at 10 mg/kg; type: ADME, organism-based; details: in vivo
[37] = Antitumor activity against human U373 cells xenografted in mouse assessed as tumor growth inhibition at 5 mg/kg, po q3d measured on day 35; type: functional, U-373MG ATCC; details: 840 h
[38] = Permeability across basolateral to apical side in human Caco2 cells; type: ADME, cell-based; details: Caco-2, read-out: permeability
[39] = Antitumor activity against human COLO205 cells xenografted in mouse assessed as tumor growth inhibition at 7.5 mg/kg, po q3d measured on day 35; type: functional; details: COLO 205, 840 h
[40] = AUC in CD1 mouse at 10 mg/kg, po; type: ADME, organism-based; design: dose 10 mg/kg, route oral; details: plasma
[41] = Cmax in Sprague-Dawley rat at 10 mg/kg, po; type: ADME, organism-based; design: dose 10 mg/kg, route oral; details: in vivo
[42] = AUC in beagle dog at 10 mg/kg, po; type: ADME, organism-based, Canis lupus familiaris; design: dose 10 mg/kg, route oral; details: plasma
[43] = Antitumor activity against human COLO205 cells xenografted in mouse assessed as tumor growth inhibition at 5 mg/kg, po q3d measured on day 35; type: functional; details: COLO 205, 840 h
[44] = AUC ratio of drug uptake from brain to plasma in rat; type: ADME

## CC(=O)N1N=C(c2cc(F)ccc2F)S[C@]12c1ccccc1OC[C@@H]2CCN
[1]
  Retention_time: 2.33 min
[2]
  EC50: > 1000 nM

## NCCCC(=O)N1N=C(c2cc(F)ccc2F)SC12CCOc1ccccc12 (centres undefined)
[2]
  EC50: 338 nM

## CC(=O)N1N=C(c2cc(F)ccc2F)S[C@]12c1ccccc1OC[C@H]2CCN
[1]
  Retention_time: 2.15 min
[2]
  EC50: 205 nM

## NCCC(=O)N1N=C(c2cc(F)ccc2F)SC12CCOc1ccccc12 (centres undefined)
[2]
  EC50: > 500 nM

## CC(=O)N1N=C(c2cc(F)ccc2F)S[C@@]12c1ccccc1OC[C@H]2CCN
[1]
  Retention_time: 4.08 min
HCT-116 [3]
  Activity: 70%
HCT-116 [4]
  Activity: Active
[5]
  bioavailability: 12%
[6]
  Cmax: 100 nM
[7]
  Vd: 8.6 L/kg
[8]
  bioavailability: 9%
[9]
  half-life: 2 h
[10]
  AUC: 2.3 µM·h
[11]
  AUC: 3 µM·h
[12]
  AUC: 3.6 µM·h
[13]
  clearance: 90 mL/min/kg
[14]
  AUC: 0.8 µM·h
[15]
  half-life: 1.8 h
HCT-116 [16]
  Activity: Active
[17]
  clearance: 46 mL/min/kg
[18]
  Vd: 3.9 L/kg
[19]
  half-life: 3.9 h
[20]
  Cmax: 300 nM
[21]
  clearance: 13.7 mL/min/kg
[22]
  Vd: 6.4 L/kg
[2]
  EC50: 2 nM
[23]
  bioavailability: 9%
[24]
  Cmax: 600 nM
[25]
  AUC: 0.3 µM·h
[26]
  AUC: 1.4 µM·h

## CC(=O)N1N=C(c2cc(F)ccc2F)SC12c1ccccc1OCC2CCN (racemic)
[2]
  EC50: 5 nM

## CNCCCC(=O)N1N=C(c2cc(F)ccc2F)SC12CCOc1ccccc12 (centres undefined)
[2]
  EC50: 367 nM

## NCC(=O)N1N=C(c2cc(F)ccc2F)SC12CCOc1ccccc12 (centres undefined)
[2]
  EC50: > 1000 nM

## CC(=O)N1N=C(c2cc(F)ccc2F)SC12CCCOc1ccccc12 (centres undefined)
[2]
  EC50: > 1000 nM

## CN(C)CCCC(=O)N1N=C(c2cc(F)ccc2F)SC12CCOc1ccccc12 (centres undefined)
[2]
  EC50: 263 nM

## CC(=O)N1N=C(c2cc(F)ccc2F)S[C@@]12c1cc(F)c(F)cc1OC[C@H]2CCN
[27]
  bioavailability: 44%
[28]
  Papp A→B: 10.6 ×10⁻⁶ cm/s
[29]
  Cmax: 500 nM
[10]
  AUC: 4.6 µM·h
[30]
  Kp: 4
[11]
  AUC: 3.1 µM·h
[31]
  bioavailability: 53%
[32]
  Cmax: 1030 nM
[33]
  inhibition in vivo at 7.5 mg/kg: 69%
[34]
  AUC: 2.5 µM·h
[13]
  clearance: 42 mL/min/kg
[14]
  AUC: 0.8 µM·h
[35]
  bioavailability: 64%
[36]
  bioavailability: 87%
[17]
  clearance: 49 mL/min/kg
[37]
  inhibition in vivo at 5 mg/kg: 31%
[38]
  Papp B→A: 11.5 ×10⁻⁶ cm/s
[39]
  inhibition in vivo at 7.5 mg/kg: 126%
[40]
  AUC: 7.9 µM·h
[21]
  clearance: 12 mL/min/kg
[41]
  Cmax: 220 nM
[42]
  AUC: 6.9 µM·h
[43]
  inhibition in vivo at 5 mg/kg: 116%
[2]
  EC50: 3 nM
[44]
  Kp: 4

## COCC(=O)N1N=C(c2cc(F)ccc2F)SC12CCOc1ccccc12 (centres undefined)
[2]
  EC50: 665 nM

## CC(=O)N1N=C(c2cc(F)ccc2F)SC12CCOc1ccccc12 (centres undefined)
[2]
  EC50: 139 nM
